Test results from patent publication US10000454B2, “Antidiabetic tricyclic compounds” (Merck Sharp & Dohme Corp., priority 2014, dated 2018).

Experiments:
Human GPR40 [1] = target: T1, Human GPR40 (Homo sapiens, UniProt O14842); assay: FLIPR assay, agonist-induced calcium mobilization; assay type: cell-based; set-up: expressed in transfected cells; details: GPR40/CHO NFAT BLA cells
Summary of the method: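 CHO NFAT-BLA cells stably expressing human GPR40 were loaded 100 min at room temperature with buffer (HMS, 0.1% BSA, 20 mM HEPES, 2.5 mM probenecid, pH 7.4) containing 8 μM fluo-4 AM. The agonist-induced calcium rise after compound addition was read as FLIPR fluorescence.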

Human GPR40 [2] = target: T1, Human GPR40; assay: Inositol Phosphate Turnover (IP1) Assay; assay type: cell-based; set-up: expressed in transfected cells; host or cells: HEK cells (stably expressing the aequorin reporter); details: HEK cells stably expressing human GPR40, CisBio IP-One kit
Summary of the method: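 HEK cells stably expressing human GPR40, plated 15,000 per well and incubated 16 h, then exposed to compound for 60 min at 37 degrees in stimulation buffer. IP1 measured by HTRF (IP-One) as 665/620 nm ratio, converted to IP1 concentration via a standard curve.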

T1 sequence (O14842 whole entry): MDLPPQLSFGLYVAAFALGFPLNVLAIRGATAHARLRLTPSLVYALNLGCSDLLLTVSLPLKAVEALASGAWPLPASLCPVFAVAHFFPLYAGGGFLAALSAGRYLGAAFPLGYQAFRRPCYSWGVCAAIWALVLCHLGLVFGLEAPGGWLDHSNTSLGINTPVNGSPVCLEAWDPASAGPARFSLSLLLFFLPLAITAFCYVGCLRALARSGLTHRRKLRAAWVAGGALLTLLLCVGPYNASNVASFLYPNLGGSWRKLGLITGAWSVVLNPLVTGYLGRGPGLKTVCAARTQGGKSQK

SMILES | EC50 (Human GPR40 [1]) | EC50 (Human GPR40 [2])
CC1(C)CCN(c2ccccc2C(F)(F)F)c2cc(COc3cc4c(cn3)[C@H]3[C@@H](C4)[C@@H]3C(=O)O)c(F)cc21 [Example 53, (5aR,6S,6aS)-3-((6-fluoro-4,4-dimethyl-1-(2-(trifluoromethyl)phenyl)-1,2,3,4-tetrahydroquinolin-7-yl)methoxy)-5,5a,6,6a-tetrahydrocyclopropa[4,5]cyclopenta[1,2-c]pyridine-6-carboxylic acid] | 8.38 nM | 39.2 nM
CC1(C)CC(=O)N(c2ccccc2C(F)(F)F)c2cc(COc3cc4c(cn3)[C@H]3[C@@H](C4)[C@@H]3C(=O)O)c(F)cc21 [Example 54, (5aR,6S,6aS)-3-((6-fluoro-4,4-dimethyl-2-oxo-1-(2-(trifluoromethyl)phenyl)-1,2,3,4-tetrahydroquinolin-7-yl)methoxy)-5,5a,6,6a-tetrahydrocyclopropa[4,5] cyclopenta[1,2-c]pyridine-6-carboxylic acid] | 44.9 nM | 562 nM
CC1(C)CCC(c2ccccc2C(F)(F)F)c2cc(COc3cc4c(cn3)[C@H]3[C@@H](C4)[C@@H]3C(=O)O)c(F)cc21 (stereo partly drawn) [Example 55, (5aR,6S,6aS)-3-((3-fluoro-5,5-dimethyl-8-(2-(trifluoromethyl)phenyl)-5,6,7,8-tetrahydronaphthalen-2-yl)methoxy)-5,5a,6,6a-tetrahydrocyclopropa[4,5]cyclopenta[1,2-c]pyridine-6-carboxylic acid] | 63.7 nM | 70.2 nM
O=C(O)[C@H]1[C@@H]2Cc3cc(OCc4ccc5c(c4)N(c4ccccc4)CCO5)ncc3[C@@H]21 [Example 61, (5aR,6S,6aS)-3-((4-phenyl-3,4-dihydro-2H-benzo[b][1,4]oxazin-6-yl)methoxy)-5,5a,6,6a-tetrahydrocyclopropa[4,5]cyclopenta[1,2-c]pyridine-6-carboxylic acid] | 40.5 nM | 653 nM
O=C(O)[C@H]1[C@@H]2Cc3cc(OCc4ccc5c(c4)N(c4ccccc4)CCCC5)ncc3[C@@H]21 [Example 62, (5aR,6S,6aS)-3-((1-phenyl-2,3,4,5-tetrahydro-1H-benzo[b]azepin-8-yl)methoxy)-5,5a,6,6a-tetrahydrocyclopropa[4,5]cyclopenta[1,2-c]pyridine-6-carboxylic acid] | 14.6 nM | 42.9 nM
O=C(O)[C@H]1[C@@H]2Cc3cc(OCc4ccc5c(c4)N(c4ccccc4)CCC5)ccc3[C@@H]21 [Example 66, (1S,1aS,6aR)-4-((1-phenyl-1,2,3,4-tetrahydroquinolin-7-yl)methoxy)-1,1a,6,6a-tetrahydrocyclopropa[a]indene-1-carboxylic acid] | 9.77 nM | 72.6 nM
O=C(O)[C@H]1[C@@H]2Cc3cc(OCc4ccc5c(c4)N(c4ccccn4)CCC5)ccc3[C@@H]21 [Example 67, (1S,1aS,6aR)-4-((1-(pyridin-2-yl)-1,2,3,4-tetrahydroquinolin-7-yl)methoxy)-1,1a,6,6a-tetrahydrocyclopropa[a] indene-1-carboxylic acid] | 28.9 nM | 169 nM
Cc1ccccc1N1CCCc2ccc(COc3ccc4c(c3)C[C@H]3[C@H](C(=O)O)[C@@H]43)cc21 [Example 68, (1S,1aS,6aR)-4-((1-(o-tolyl)-1,2,3,4-tetrahydroquinolin-7-yl)methoxy)-1,1a,6,6a-tetrahydrocyclopropa[a] indene-1-carboxylic acid] | 24.7 nM | 64.9 nM
Cn1cnc2c([C@H]3CC(C)(C)c4ccc(COc5cc6c(cn5)[C@H]5[C@@H](C6)[C@@H]5C(=O)O)cc43)cccc21 [Example 71] | 13.3 nM | 205 nM
CN1CC(C)(C)c2cc(F)c(COc3cc4c(cn3)[C@H]3[C@@H](C4)[C@@H]3C(=O)O)cc2[C@H]1c1ccccc1C(F)(F)F [Example 73, (5aR,6S,6aS)-3-(((S)-6-fluoro-2,4,4-trimethyl-1-(2-(trifluoromethyl)phenyl)-1,2,3,4-tetrahydroisoquinolin-7-yl)methoxy)-5,5a,6,6a-tetrahydrocyclopropa[4,5]cyclopenta[1,2-c]pyridine-6-carboxylic acid] | 18.6 nM | 21.1 nM
CC1(C)CNC(c2ccccc2C(F)(F)F)c2c1ccc(COc1cc3c(cn1)[C@H]1[C@@H](C3)[C@@H]1C(=O)O)c2F (stereo partly drawn) [Example 74, (5aR,6S,6aS)-3-((8-fluoro-4,4-dimethyl-1-(2-(trifluoromethyl)phenyl)-1,2,3,4-tetrahydroisoquinolin-7-yl)methoxy)-5,5a,6,6a-tetrahydrocyclopropa[4,5]cyclopenta[1,2-c]pyridine-6-carboxylic acid] | 6.75 nM | 4.99 nM
